Results on 36 compounds are retold here after patent US20120059162A1, “FUSED IMIDAZOLE DERIVATIVE HAVING TTK INHIBITORY ACTION” (Oncotherapy Science, Inc., priority 2009, published 2012).

Like-named read-outs stand apart in the source and are kept apart here.

For orientation: IC50 means the concentration needed to halve the response being measured.

In experiment [1] the target is T1, TTK (Homo sapiens, UniProt P33981).
T1 sequence (P33981 1-857): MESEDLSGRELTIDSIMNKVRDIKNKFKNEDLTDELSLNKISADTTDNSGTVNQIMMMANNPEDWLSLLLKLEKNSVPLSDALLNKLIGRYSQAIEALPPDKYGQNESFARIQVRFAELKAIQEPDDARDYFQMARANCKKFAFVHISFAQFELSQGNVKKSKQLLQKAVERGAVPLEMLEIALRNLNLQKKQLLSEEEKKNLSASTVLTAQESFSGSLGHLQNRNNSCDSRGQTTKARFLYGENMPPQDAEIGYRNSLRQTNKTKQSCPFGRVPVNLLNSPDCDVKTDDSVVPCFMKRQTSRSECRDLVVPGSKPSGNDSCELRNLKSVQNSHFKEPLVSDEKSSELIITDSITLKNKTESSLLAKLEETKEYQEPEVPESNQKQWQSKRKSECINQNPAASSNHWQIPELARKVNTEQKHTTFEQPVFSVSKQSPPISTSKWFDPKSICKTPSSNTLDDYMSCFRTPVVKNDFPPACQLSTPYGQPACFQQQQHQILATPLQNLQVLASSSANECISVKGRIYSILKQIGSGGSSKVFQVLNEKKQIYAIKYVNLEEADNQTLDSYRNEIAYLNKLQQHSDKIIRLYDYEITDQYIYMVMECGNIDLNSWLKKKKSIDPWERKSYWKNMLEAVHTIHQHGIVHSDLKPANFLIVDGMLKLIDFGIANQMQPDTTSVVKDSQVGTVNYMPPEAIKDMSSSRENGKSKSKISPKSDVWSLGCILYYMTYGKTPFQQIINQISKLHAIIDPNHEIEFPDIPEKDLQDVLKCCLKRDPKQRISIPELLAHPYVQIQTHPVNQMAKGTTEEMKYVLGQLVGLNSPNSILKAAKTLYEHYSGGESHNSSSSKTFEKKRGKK
As to the kind of experiment: TTK assay: screening of TTK kinase activity suppressing action using p38 MAPK peptide. The experiment is classed as biochemical. The settings on record: read-out: TTK IC50. Here is the method:
Screening of a compound having a TTK kinase activity suppressing action using p38 MAPK peptide
A test substance 1.0 μL (solvent: 10% (v/v) DMSO), TTK solution 5 μL (composition: 4 μg/ml TTK, 25 mM Tris-HCl, pH7.5, 5 mM β-glycerophosphate, 2 mM DTT, 0.1 mM Na3VO4, 5 mM MgCl2, 0.1% (w/v)BSA) and a substrate solution 5 μL (composition: 60 μM p38 MAPK peptide, 60 μM ATP, 25 mM Tris-HCl, pH7.5, 5 mM β-glycerophosphate, 2 mM DTT, 0.1 mM Na3VO4, 5 mM MgCl2, 0.1% (w/v)BSA) were mixed in the wells of a 384-well microtiter plate (manufactured by Corning Incorporated) made of polypropylene and loaded in a constant temperature and humidity room.
From the resultant mixture, an aliquot of 1.7 μL was taken out and mixed with the reaction terminating solution (60 μl) in the wells of a 384-well microtiter plate (manufactured by Corning Incorporated) made of polypropylene. Thereafter, 40 μL of the mixture was transferred to a 384-well black NeutrAvidin plate (PIERCE), sealed and incubated under room temperature for 30 minutes. […] Similarly, the plate was washed with TTBS (100 μL) three times, 40 μl of a secondary antibody solution (Eu-N1 labeled Anti-mouse IgG (Perkin Elmer, #AD0124)) was added and incubated under room temperature for 30 minutes. After the plate was washed with TTBS (100 μL) five times, 40 μL of an enhance solution (Perkin Elmer) was added and incubated under room temperature for 5 minutes. […] Based on the fluorescence value in the absence of a test substance, the suppression activity of a test substance was measured.

Experiment [2] relates to A549. As to the kind of experiment: A549 assay: screening of cancer cell growth inhibiting compound. The experiment is classed as cell-based. As to conditions: Homo sapiens. On the procedure: Screening of Cancer Cell Growth Inhibiting Compound
A cell suspension solution (RERF-LC-AI, A549: 1×10^4/ml, MRC5: 3×10^4/ml and 1×10^5/ml) adjusted to an appropriate concentration with D-MEM (hereinafter, referred to as a culture solution and manufactured by Nacalai Tesque Inc.) supplemented with 10% FBS (HyClone) was added to the wells of a 96-well plate (hereinafter, well plate) at a rate of 100 μL/well and incubated in a CO2 incubator at 37° C. for a day. […] Next, cells were added to each well of the well plate prepared and the above compound dilution solution was added at a rate of 100 μL/well to obtain 200 μL/well. Thereafter, the cells were incubated in the CO2 incubator at 37° C. for further three days. To each well of the well plate, 10 μL of a WST-8 kit (Kishida Chemical Co., Ltd.) solution for counting the number of cells was added and a color reaction was performed in the CO2 incubator for 1 to 4 hours. After the absorbance at 450 nm (reference wavelength: 620 nm) was measured by a microplate reader, suppressing action of the test substance was calculated based on the absorbance value in the absence of a test substance.

The mark [3] stands for this setting: 72 h, A549 cells, three days, WST-8, read-out: A549 IC50.
Setting [4] is: A549 cells, values given as IC50 intervals, read-out: A549 IC50.

For `CC(C)C(C)(C)Nc1cc(NCC2CCOCC2)c2ncc(-c3ccc(C(=O)NC4CC4)cc3)n2n1` [Example 2-82], the IC50 in experiment [1] (p38 MAPK peptide substrate) is 6 nM; in experiment [2] (setting [3]) it was at most 0.05 µM.
With `COC1CCN(c2cc(NCC3CCOCC3)c3ncc(-c4ccc(C(=O)NC5CC5)cc4)n3n2)CC1` [Example 2-26], the IC50 is 8.9 nM in experiment [1] (p38 MAPK peptide substrate) and 0.05 to 0.5 µM in experiment [2] (setting [3]).
`O=C(NC1CC1)c1ccc(-c2cnc3c(NCC4CCOCC4)cc(OC4CCCCC4O)nn23)cc1` (stereo not drawn) [Example 2-188]: the results for the IC50 in experiment [1] and in experiment [2] (setting [4]) were 5.3 nM and 0.05 to 0.5 µM, respectively.
On to `O=C(NC1CC1)c1ccc(-c2cnc3c(NCC4CCOCC4)cc(Oc4cccc(C(F)(F)F)c4)nn23)cc1` [Example 2-111], for which the results for the IC50 in experiment [1] (p38 MAPK peptide substrate) and in experiment [2] (setting [3]) were 3.8 nM and 0.05 to 0.5 µM, respectively.
Consider `COC[C@@H]1CCCN1c1cc(NCC2CCOCC2)c2ncc(-c3ccc(C(=O)NC4CC4)cc3)n2n1` [Example 2-66], for which the values for the IC50 in experiment [1] (p38 MAPK peptide substrate) and in experiment [2] (setting [3]) were 4.5 nM and 0.05 to 0.5 µM, respectively.
For `Cn1ccc(CNc2cc(NC3CCCCC3)nn3c(-c4ccc(C(=O)NC5CC5)cc4)cnc23)n1` [Example 2-159], in that order: 26.1 nM and 0.05 to 0.5 µM.
The matching figures for `N#Cc1ccc(-c2cn3c(-c4ccc(C(=O)NC5CC5)cc4)cnc3c(NCCc3ccc(O)cc3)n2)cc1` [Example 1-228]: 20.5 nM and 0.5 to 1 µM.
In the case of `NC1CCCCC1Nc1cc(NCC2CCOCC2)c2ncc(-c3ccc(C(=O)NC4CC4)cc3)n2n1` (stereo not drawn) [Example 2-71], the IC50 in experiment [1] (p38 MAPK peptide substrate) is 9.4 nM; in experiment [2] (setting [3]), 1 to 10 µM.
The matching figures for `O=C(NC1CC1)c1ccc(-c2cnc3c(NCC4CCS(=O)(=O)CC4)cc(NC4CCCCC4)nn23)cc1` [Example 2-146]: 3.8 nM and 0.5 to 1 µM.
The matching figures for `O=C(NC1CC1)c1ccc(-c2cnc3c(NCC4CCOCC4)cc(N4CCOCC4)nn23)cc1` [Example 2-14]: 9.3 nM and 0.05 to 0.5 µM.
For the compound `N#Cc1cccc(-c2cc(NCC3CCOCC3)c3ncc(-c4ccc(C(=O)NC5CC5)cc4)n3n2)c1` [Example 2-203], the IC50 is 4.7 nM in experiment [1] and 0.05 to 0.5 µM in experiment [2] (setting [4]).
With `O=C(NC1CC1)c1ccc(-c2cnc3c(NCC4(O)CCOCC4)cc(NC4CCCCC4)nn23)cc1` [Example 2-169], the IC50 is 7.2 nM in experiment [1] and 0.05 to 0.5 µM in experiment [2] (setting [4]).
For the compound `N#Cc1ccc(-c2cn3c(-c4ccc(C(=O)NC5CC5)cc4)cnc3c(NCc3cccs3)n2)cc1` [Example 1-212], the IC50 was 7.2 nM in experiment [1] (p38 MAPK peptide substrate) and 0.05 to 0.5 µM in experiment [2] (setting [3]).
On to `COc1ccc(Oc2cc(NCC3CCOCC3)c3ncc(-c4ccc(C(=O)NC5CC5)cc4)n3n2)cc1` [Example 2-179], for which the IC50 was 3.7 nM in experiment [1] and at most 0.05 µM in experiment [2] (setting [4]).
As to `O=C(NC1CC1)c1ccc(-c2cnc3c(NC[C@H]4CC[C@H](O)CC4)cc(NC4CCCCC4)nn23)cc1` [Example 2-164], the results for the IC50 in experiment [1] (p38 MAPK peptide substrate) and in experiment [2] (setting [3]) were 3.3 nM and 0.05 to 0.5 µM, respectively.
The matching figures for `O=C(NC1CC1)c1ccc(-c2cc(NCC3CCOCC3)c3ncc(-c4ccc(C(=O)NC5CC5)cc4)n3n2)cc1` [Example 2-6, 4,4′-(8-((Tetrahydro-2H-pyran-4-yl)methylamino)imidazo[1,2-b]pyridazine-3,6-diyl)bis(N-cyclopropylbenzamide)]: 11.9 nM and 0.05 to 0.5 µM.
The matching figures for `CC1(Nc2cc(NCC3CCOCC3)c3ncc(-c4ccc(C(=O)NC5CC5)cc4)n3n2)CCOCC1` [Example 2-79]: 5.9 nM and 0.05 to 0.5 µM.
The matching figures for `CC1CCC(Nc2cc(NCC3CCOCC3)c3ncc(-c4ccc(C(=O)NC5CC5)cc4)n3n2)CC1` (stereo not drawn) [Example 2-19]: 6 nM and 0.05 to 0.5 µM.
For the compound `CC(C)CNc1nc(-c2cccc(C(N)=O)c2)cn2c(-c3ccc(C(=O)NC4CC4)cc3)cnc12` [Example 1-143], the IC50 in experiment [2] (setting [3]) lay in the range of 0.5 to 1 µM.
Same read-out and setting: the figure for `CC(C)CNc1nc(-c2ccc(NC(=O)N3CCCC3)cc2)cn2c(-c3ccc(C(=O)NC4CC4)cc3)cnc12` [Example 1-121] is 0.5 to 1 µM.
`CC(C)CNc1nc(-c2ccc(S(=O)(=O)N3CCCC3)cc2)cn2c(-c3ccc(C(=O)NC4CC4)cc3)cnc12` [Example 1-115]: the IC50 in experiment [2] (setting [3]) is 1 to 10 µM.
As for `Cc1nc(C)c(-c2cc(NCC(C)C)c3ncc(-c4ccc(C(=O)NC5CC5)cc4)n3n2)s1` [Example 2-8], the IC50 in experiment [2] (setting [3]) is 0.5 to 1 µM.
With `O=C(NC1CC1)c1ccc(-c2noc3c(NCC4CCOCC4)nc(NC4CCCC4)nc23)cc1` [Example 3-4, 4-(5-(cyclopentylamino)-7-((tetrahydro-2H-pyran-4-yl)methylamino)isoxazolo[4,5-d]pyrimidin-3-yl)-N-cyclopropylbenzamide], the IC50 in experiment [1] was 527 nM.
Take `CC(C)CNc1nc(-c2ccc(NC3CCOCC3)cc2)cn2c(-c3ccc(C(=O)NC4CC4)cc3)cnc12` [Example 1-170]: in experiment [2] (setting [3]), the IC50 lay in the range of 1 to 10 µM.
The same measure, in the same setting: the figure for `COCCNC(=O)c1ccc(-c2cn3c(-c4ccc(C(=O)NC5CC5)cc4)cnc3c(NCC(C)C)n2)cc1` [Example 1-148] is 0.5 to 1 µM.
Still for that read-out and setting: the figure for `O=C(NC1CC1)c1ccc(-c2cnc3c(NCC4CCOCC4)nc(CC4CCCCC4)cn23)cc1` [Example 1-250] is 1 to 10 µM.
As to `CC(=O)N1CC=C(c2cn3c(-c4ccc(C(=O)NC5CC5)cc4)cnc3c(NCC3CCOCC3)n2)CC1` [Example 1-249], the IC50 in experiment [2] (setting [3]) lay within 0.5 to 1 µM.
Regarding `CC(C)CNc1nc(-c2ccc(C(=O)NCCN3CCOCC3)cc2)cn2c(-c3ccc(C(=O)NC4CC4)cc3)cnc12` [Example 1-147], the IC50 in experiment [2] (setting [3]) lay in the range of 1 to 10 µM.
For `COCC(=O)Nc1cccc(-c2cn3c(-c4ccc(C(=O)NC5CC5)cc4)cnc3c(NCC(C)C)n2)c1` [Example 1-156], the half-inhibitory concentration (IC50) in experiment [2] (setting [3]) is 0.5 to 1 µM.
Consider `CC(C)CNc1nc(-c2cccc(NC3CCOCC3)c2)cn2c(-c3ccc(C(=O)NC4CC4)cc3)cnc12` [Example 1-167], for which, in experiment [2] (setting [3]), the IC50 lay in the range of 0.5 to 1 µM.
For `O=C(NC1CC1)c1ccc(-c2cnc3c(NCC4CC4)nccn23)cc1` [Example 1-36], in experiment [2] (A549, 72 h, read-out: A549 IC50 (μM)), the IC50 was 1 to 10 µM.
On to `CC(C)CNc1nc(-c2cccc(NCC3CCN(C)CC3)c2)cn2c(-c3ccc(C(=O)NC4CC4)cc3)cnc12` [Example 1-168], for which, in experiment [2] (setting [3]), the IC50 lay within 0.5 to 1 µM.
On the same count and under the same terms, the figure for `COCC(=O)Nc1ccc(-c2cn3c(-c4ccc(C(=O)NC5CC5)cc4)cnc3c(NCC(C)C)n2)cc1` [Example 1-162] is 1 to 10 µM.
As for `CC(C)CNc1nc(-c2cccc(NC(=O)CCCN3CCOCC3)c2)cn2c(-c3ccc(C(=O)NC4CC4)cc3)cnc12` [Example 1-158], the IC50 in experiment [2] (setting [3]) fell in the range of 0.5 to 1 µM.
The same measure, in the same setting: the value for `CC(C)CNc1nc(-c2cccc(C(=O)NCCN3CCOCC3)c2)cn2c(-c3ccc(C(=O)NC4CC4)cc3)cnc12` [Example 1-139] was 0.5 to 1 µM; that for `O=C(NC1CC1)c1ccc(-c2cnc3c(NCC4CCOCC4)nc(C=C4CCCCC4)cn23)cc1` [Example 1-248] was 1 to 10 µM.
